From patent US10392383B2, “3-(1H-benzo[d]imidazol-2-yl)-1H-pyrazolo[4,3-b]pyridines and therapeutic uses thereof” (Samumed, LLC, priority 2015, dated 2019)

Legend:
Assay type in all cases: cell-based
[1] = system: Wnt activity (Sp5-Luc reporter, Wnt-responsive promoter) in SW480 colon carcinoma cells; test: Wnt activity screening assay: Sp5-Luc reporter gene assay in SW480 cells; conditions: Homo sapiens, overnight incubation, 10-point curve starting from 10 μM
Outline: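 Wnt-driven firefly luciferase in SW480 colon carcinoma cells reports pathway activity after overnight compound exposure (10 μM top concentration, 3-fold steps). Signal is normalized to DMSO controls.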

SW480 colon cancer cells = test: Cell viability assay (CellTiter-Blue) in SW480 cells; conditions: Homo sapiens, 96 h, four days; for EC50: CellTiter-Blue, 10 μM to 0.0045 μM; for inhibition at 10 µM: read-out: percent inhibition at 10 μM (given for EC50 of >10 μM)
Outline: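 Approximately 2×10^3 SW480 cells per well are seeded with compound (8 points, threefold steps, top 10 μM) and incubated four days at 37 °C. CellTiter-Blue is then added for about 3 h and fluorescence read. Non-linear regression gives EC50; for values beyond 10 μM, percent inhibition at that concentration is listed.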

[2] = system: primary human fibroblasts derived from IPF patients (LL29 cells) treated with TGF-β1; test: Inhibition of the fibrotic process: αSMA staining in TGF-β1-treated LL29 fibroblasts; conditions: Fibroblast; for EC50: 96 h, LL29 fibroblasts treated with TGF-β1 (20 ng/mL), 4 days, Table 4; for inhibition at 10 µM: LL29 fibroblasts treated with TGF-β1, Table 4, read-out: percent inhibition at 10 μM (given in parentheses for EC50 >10 μM)
Outline: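 IPF-derived LL29 fibroblasts in F12 with 1% FBS dosed with compound (11-point, 10 μM to 1.87 nM, 0.1% DMSO), then 20 ng/mL TGF-β1 after 1 h, and cultured 4 days at 37 °C. αSMA-positive cell fraction imaged after excluding SYTOX-positive cells, normalized to TGF-β1/DMSO wells; EC50 by non-linear regression, % inhibition at 10 μM if EC50 >10 μM.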

Compound | EC50 [1] [nM] | EC50 (SW480 colon cancer cells) [nM] | EC50 [2] [nM] | inhibition at 10 µM (SW480 colon cancer cells) [%] | inhibition at 10 µM [2] [%]
CN(C)Cc1cncc(-c2ccc3[nH]nc(-c4nc5c(-c6cccc(F)c6)cccc5[nH]4)c3n2)c1 [Compound 13, 1-(5-(3-(4-(3-Fluorophenyl)-1H-benzo[d]imidazol-2-yl)-1H-pyrazolo[4,3-b]pyridin-5-yl)pyridin-3-yl)-N,N-dimethylmethanamine] | 637 | 466 | 616 | – | –
Fc1cccc(-c2cccc3[nH]c(-c4n[nH]c5ccc(-c6ccncc6)nc45)nc23)c1 [Compound 18, 3-(4-(3-Fluorophenyl)-1H-benzo[d]imidazol-2-yl)-5-(pyridin-4-yl)-1H-pyrazolo[4,3-b]pyridine] | 1320 | > 10000 | 231 | 0 | –
O=C(Nc1cncc(-c2ccc3[nH]nc(-c4nc5c(N6CCCCC6)cccc5[nH]4)c3n2)c1)C1CC1 [Compound 188, N-(5-(3-(4-(Piperidin-1-yl)-1H-benzo[d]imidazol-2-yl)-1H-pyrazolo[4,3-b]pyridin-5-yl)pyridin-3-yl)cyclopropanecarboxamide] | 3730 | 4540 | > 10000 | – | 49.2
FC1(F)CCN(Cc2cncc(-c3ccc4[nH]nc(-c5nc6c(N7CCCCC7)cccc6[nH]5)c4n3)c2)C1 [Compound 194, 5-(5-((3,3-Difluoropyrrolidin-1-yl)methyl)pyridin-3-yl)-3-(4-(piperidin-1-yl)-1H-benzo[d]imidazol-2-yl)-1H-pyrazolo[4,3-b]pyridine] | 3910 | > 10000 | 6660 | 25.4 | –
Cc1cn(-c2cccc3[nH]c(-c4n[nH]c5ccc(-c6cncc(NC(=O)C(C)(C)C)c6)nc45)nc23)cn1 [Compound 204, N-(5-(3-(4-(4-Methyl-1H-imidazol-1-yl)-1H-benzo[d]imidazol-2-yl)-1H-pyrazolo[4,3-b]pyridin-5-yl)pyridin-3-yl)pivalamide] | 1240 | 1510 | 997 | – | –
Cc1cn(-c2cccc3[nH]c(-c4n[nH]c5ccc(-c6cncc(CN7CCCC7)c6)nc45)nc23)cn1 [Compound 210, 3-(4-(4-Methyl-1H-imidazol-1-yl)-1H-benzo[d]imidazol-2-yl)-5-(5-(pyrrolidin-1-ylmethyl)pyridin-3-yl)-1H-pyrazolo[4,3-b]pyridine] | 4110 | 8470 | > 10000 | – | 30.4
Cc1cn(-c2cccc3[nH]c(-c4n[nH]c5ccc(-c6cncc(NC(=O)C7CCC7)c6)nc45)nc23)cn1 [Compound 217, N-(5-(3-(4-(4-Methyl-1H-imidazol-1-yl)-1H-benzo[d]imidazol-2-yl)-1H-pyrazolo[4,3-b]pyridin-5-yl)pyridin-3-yl)cyclobutanecarboxamide] | 2840 | 3500 | > 10000 | – | 0
CN1CCN(c2cccc3[nH]c(-c4n[nH]c5ccc(-c6cncc(NC(=O)C7CCCC7)c6)nc45)nc23)CC1 [Compound 246, N-(5-(3-(4-(4-Methylpiperazin-1-yl)-1H-benzo[d]imidazol-2-yl)-1H-pyrazolo [4,3-b]pyridin-5-yl)pyridin-3-yl)cyclopentanecarboxamide] | 8530 | 8360 | 4940 | – | –
c1cncc(-c2ccc3[nH]nc(-c4nc5ccccc5[nH]4)c3n2)c1 [Compound 256, 3-(1H-Benzo[d]imidazol-2-yl)-5-(pyridin-3-yl)-1H-pyrazolo[4,3-b]pyridine] | 5480 | 8840 | > 10000 | – | 0
O=C(Nc1cncc(-c2ccc3[nH]nc(-c4nc5ccccc5[nH]4)c3n2)c1)C1CCCCC1 [Compound 275, N-(5-(3-(1H-Benzo[d]imidazol-2-yl)-1H-pyrazolo[4,3-b]pyridin-5-yl)pyridin-3-yl) cyclohexanecarboxamide] | 1980 | 593 | 80.8 | – | –
c1ccc(-c2ccc3[nH]nc(-c4nc5ccccc5[nH]4)c3n2)nc1 [Compound 280, 3-(1H-Benzo[d]imidazol-2-yl)-5-(pyridin-2-yl)-1H-pyrazolo[4,3-b]pyridine] | 611 | 1890 | 4740 | – | –

Second part, led by results:

EC50 [1] [nM] | EC50 (SW480 colon cancer cells) [nM] | Compound | EC50 [2] [nM] | inhibition at 10 µM (SW480 colon cancer cells) [%] | inhibition at 10 µM [2] [%]
1360 | 2740 | CCC(=O)Nc1cncc(-c2ccc3[nH]nc(-c4nc5c(-c6cccc(F)c6)cccc5[nH]4)c3n2)c1 [Compound 1, N-(5-(3-(4-(3-Fluorophenyl)-1H-benzo[d]imidazol-2-yl)-1H-pyrazolo[4,3-b]pyridin-5-yl)pyridin-3-yl)propionamide] | 1180 | – | –
1160 | > 10000 | CC(C)CC(=O)Nc1cncc(-c2ccc3[nH]nc(-c4nc5c(-c6cccc(F)c6)cccc5[nH]4)c3n2)c1 [Compound 2, N-(5-(3-(4-(3-Fluorophenyl)-1H-benzo[d]imidazol-2-yl)-1H-pyrazolo[4,3-b]pyridin-5-yl)pyridin-3-yl)-3-methylbutanamide] | 9860 | 14.2 | –
779 | 2780 | CN(C)c1cncc(-c2ccc3[nH]nc(-c4nc5c(-c6cccc(F)c6)cccc5[nH]4)c3n2)c1 [Compound 7, 5-(3-(4-(3-fluorophenyl)-1H-benzo[d]imidazol-2-yl)-1H-pyrazolo[4,3-b]pyridin-5-yl)-N,N-dimethylpyridin-3-amine] | 1440 | – | –
1080 | 4240 | O=C(Nc1cncc(-c2ccc3[nH]nc(-c4nc5c(-c6cccc(F)c6)cccc5[nH]4)c3n2)c1)C1CC1 [Compound 20, N-(5-(3-(4-(3-Fluorophenyl)-1H-benzo[d]imidazol-2-yl)-1H-pyrazolo[4,3-b]pyridin-5-yl)pyridin-3-yl)cyclopropanecarboxamide] | 1200 | – | –
1040 | 1220 | Cc1cn(-c2cccc3[nH]c(-c4n[nH]c5ccc(-c6cncc(NC(=O)CC(C)C)c6)nc45)nc23)cn1 [Compound 198, 3-Methyl-N-(5-(3-(4-(4-methyl-1H-imidazol-1-yl)-1H-benzo[d]imidazol-2-yl)-1H-pyrazolo[4,3-b]pyridin-5-yl)pyridin-3-yl)butanamide] | 1890 | – | –
3550 | 6950 | CC(C)(C)CC(=O)Nc1cncc(-c2ccc3[nH]nc(-c4nc5ccccc5[nH]4)c3n2)c1 [Compound 268, N-(5-(3-(1H-Benzo[d]imidazol-2-yl)-1H-pyrazolo[4,3-b]pyridin-5-yl)pyridin-3-yl)-3,3-dimethylbutanamide] | 2380 | – | –
986 | 5400 | Cc1ccncc1-c1ccc2[nH]nc(-c3nc4c(-c5ccsc5)cccc4[nH]3)c2n1 [Compound 285, 5-(4-Methylpyridin-3-yl)-3-(4-(thiophen-3-yl)-1H-benzo[d]imidazol-2-yl)-1H-pyrazolo[4,3-b]pyridine] | > 10000 | – | 0
643 | 8920 | CCCC(=O)Nc1cncc(-c2ccc3[nH]nc(-c4nc5c(-c6ccsc6)cccc5[nH]4)c3n2)c1 [Compound 297, N-(5-(3-(4-(Thiophen-3-yl)-1H-benzo[d]imidazol-2-yl)-1H-pyrazolo[4,3-b]pyridin-5-yl)pyridin-3-yl)butyramide] | 1300 | – | –
2760 | 3460 | c1ccc(CNCc2cncc(-c3ccc4[nH]nc(-c5nc6c(-c7ccsc7)cccc6[nH]5)c4n3)c2)cc1 [Compound 304, N-Benzyl-1-(5-(3-(4-(thiophen-3-yl)-1H-benzo[d]imidazol-2-yl)-1H-pyrazolo[4,3-b]pyridin-5-yl)pyridin-3-yl)methanamine] | 2200 | – | –
1650 | 4790 | FC1(F)CCN(Cc2cncc(-c3ccc4[nH]nc(-c5nc6c(-c7ccsc7)cccc6[nH]5)c4n3)c2)C1 [Compound 306, 5-(5-((3,3-Difluoropyrrolidin-1-yl)methyl)pyridin-3-yl)-3-(4-(thiophen-3-yl)-1H-benzo[d]imidazol-2-yl)-1H-pyrazolo[4,3-b]pyridine] | 1230 | – | –
3250 | 584 | CCNCc1cncc(-c2ccc3[nH]nc(-c4nc5c(-c6ccoc6)cccc5[nH]4)c3n2)c1 [Compound 314, N-((5-(3-(4-(Furan-3-yl)-1H-benzo[d]imidazol-2-yl)-1H-pyrazolo[4,3-b]pyridin-5-yl)pyridin-3-yl)methyl)ethanamine] | > 10000 | – | 0
3520 | 3260 | CCC(=O)Nc1cncc(-c2ccc3[nH]nc(-c4nc5c(-c6cccs6)cccc5[nH]4)c3n2)c1 [Compound 337, N-(5-(3-(4-(Thiophen-2-yl)-1H-benzo[d]imidazol-2-yl)-1H-pyrazolo[4,3-b]pyridin-5-yl)pyridin-3-yl)propionamide] | 680 | – | –
